Results taken from US5955440A, “Macrolide LHRH antagonists” (Abbott Laboratories, priority 1998, dated 1999).

Molecular target: T1, LHRH rat pituitary receptor (Rattus norvegicus, UniProt P30969)
T1 construct: from tissue; host or cells: rat pituitary
T1 sequence (P30969 1-327): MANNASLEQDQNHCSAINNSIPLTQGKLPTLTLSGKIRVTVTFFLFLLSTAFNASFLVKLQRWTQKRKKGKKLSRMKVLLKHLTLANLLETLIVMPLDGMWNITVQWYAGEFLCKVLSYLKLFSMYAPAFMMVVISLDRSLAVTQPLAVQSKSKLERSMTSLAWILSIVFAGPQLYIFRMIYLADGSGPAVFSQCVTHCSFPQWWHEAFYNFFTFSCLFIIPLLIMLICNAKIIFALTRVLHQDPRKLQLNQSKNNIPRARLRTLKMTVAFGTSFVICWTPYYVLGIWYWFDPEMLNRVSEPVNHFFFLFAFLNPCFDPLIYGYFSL
Test: LHRH rat pituitary receptor binding (pKI)
Settings: negative logarithm of the equilibrium dissociation constants, Table 1, read-out: receptor binding affinity (pKI) (converted)
Description: Representative compounds of the present invention were evaluated in in vitro tests for LHRH rat pituitary receptor binding (pKI) and for LH inhibition from rat pituitary cells for antagonist potency (pA2). The tests employed the methods detailed in F. Haviv, et al. J. Med. Chem., 32: 2340-2344 (1989). The receptor binding affinity (pKI) is the negative logarithm of the equilibrium dissociation constants.

How did the Ki turn out when CC[C@H]1OC(=O)[C@H](C)[C@@H](O[C@H]2C[C@@](C)(OC)[C@@H](O)[C@H](C)O2)[C@H](C)[C@@H](O[C@@H]2O[C@H](C)C[C@H](N(C)Cc3ccc(OCCO)cc3)[C@H]2O)[C@](C)(OC)C[C@@H](C)C(=O)[C@H](C)[C@H]2N(CCc3ccc(F)c(Cl)c3)C(=O)O[C@]12C [Example 49, 3'-N-Desmethyl-3'-N-(4-hydroxyethoxybenzyl)-11-deoxy-11-[carboxy-(3-chloro-4-fluorophenethylamino)]-6-O-methyl-erythromycin A 11,12-(cyclic carbamate)] was run?
Its Ki is 3.16 nM.

CC[C@H]1OC(=O)[C@H](C)[C@@H](O[C@H]2C[C@@](C)(OC)[C@@H](O)[C@H](C)O2)[C@H](C)[C@@H](O[C@@H]2O[C@H](C)C[C@H](N(C)CCC(C)SC)[C@H]2O)[C@](C)(OC)C[C@@H](C)C(=O)[C@H](C)[C@H]2N(CCc3ccc(F)c(Cl)c3)C(=O)O[C@]12C (some centres unmarked) [Example 50, 3'-N-Desmethyl-3'-N-(3-methylthio)butyl-11-deoxy-11-[carboxy-(3-chloro-4-fluorophenethylamino)]-6-O-methyl-erythromycin A 11,12-(cyclic carbamate)] was tested. Which Ki did it give?
Its Ki is 0.977 nM.

With CC[C@H]1OC(=O)[C@H](C)[C@@H](O[C@H]2C[C@@](C)(OC)[C@@H](O)[C@H](C)O2)[C@H](C)[C@@H](O[C@@H]2O[C@H](C)C[C@H](N(C)CCCC(F)(F)F)[C@H]2O)[C@](C)(OC)C[C@@H](C)C(=O)[C@H](C)[C@H]2N(CCc3ccc(F)c(Cl)c3)C(=O)O[C@]12C [Example 51, 3'-N-Desmethyl-3'-N-(4,4,4-trifluorobutyl)-11-deoxy-11-[carboxy-(3-chloro-4-fluorophenethylamino)]-6-O-methyl-erythromycin A 11,12-(cyclic carbamate)] as the compound, how does the Ki read?
The Ki was 6.31 nM.

Which Ki does the source give for CC[C@H]1OC(=O)[C@H](C)[C@@H](O[C@H]2C[C@@](C)(OC)[C@@H](O)[C@H](C)O2)[C@H](C)[C@@H](O[C@@H]2O[C@H](C)C[C@H](N(C)C3CCC3)[C@H]2O)[C@](C)(OC)C[C@@H](C)C(=O)[C@H](C)[C@H]2N(CCc3ccc(Cl)c(F)c3)C(=O)O[C@]12C [Example 52, 3'-N-Desmethyl-3'-N-cyclobutyl-11-deoxy-11-[carboxy-(4-chloro-3-fluorophenethylamino)]-6-O-methyl-erythromycin A 11,12-(cyclic carbamate)] here?
Its Ki is 7.94 nM.

With CC[C@H]1OC(=O)[C@H](C)[C@@H](O[C@H]2C[C@@](C)(OC)[C@@H](O)[C@H](C)O2)[C@H](C)[C@@H](O[C@@H]2O[C@H](C)C[C@H](N(C)C(C)C)[C@H]2O)[C@](C)(OC)C[C@@H](C)C(=O)[C@H](C)[C@H]2N(CCc3ccc(F)c(F)c3)C(=O)O[C@]12C [Example 53, 3'-N-Desmethyl-3'-N-isopropyl-11-deoxy-11-[carboxy-(3,4-difluorophenethylamino)]-6-O-methyl-erythromycin A 11,12-(cyclic carbamate)] as the compound, how does the Ki read?
Its Ki is 3.02 nM.

With CCCN(C)[C@H]1C[C@@H](C)O[C@@H](O[C@@H]2[C@@H](C)[C@H](O[C@H]3C[C@@](C)(OC)[C@@H](O)[C@H](C)O3)[C@@H](C)C(=O)O[C@H](CC)[C@@]3(C)OC(=O)N(CCc4ccc5c(c4)OCCO5)[C@@H]3[C@@H](C)C(=O)[C@H](C)C[C@@]2(C)OC)[C@@H]1O [Example 54, 3'-N-Desmethyl-3'-N-propyl-11-deoxy-11-[carboxy-[3 4-(1,4-dioxano)phenethylamino)]}-6-O-methyl-erythromycin A 11,12-(cyclic carbamate)] as the compound, how does the Ki read?
Its Ki is 4.07 nM.

CC[C@H]1OC(=O)[C@H](C)[C@@H](O[C@H]2C[C@@](C)(OC)[C@@H](O)[C@H](C)O2)[C@H](C)[C@@H](O[C@@H]2O[C@H](C)C[C@H](N(C)CC3CC3)[C@H]2O)[C@](C)(OC)C[C@@H](C)C(=O)[C@H](C)[C@H]2N(CCc3ccc(Cl)c(Cl)c3)C(=O)O[C@]12C [Example 55, 3'-N-Desmethyl-3'-N-cyclopropylmethyl-11-deoxy-11-[carboxy-(3,4-dichlorophenethylamino)]-6-O-methyl-erythromycin A 11,12-(cyclic carbamate)] was tested. Which Ki did it give?
Its Ki is 7.24 nM.

With CC[C@H]1OC(=O)[C@H](C)[C@@H](O[C@H]2C[C@@](C)(OC)[C@@H](O)[C@H](C)O2)[C@H](C)[C@@H](O[C@@H]2O[C@H](C)C[C@H](N(C)CCC[S+](C)[O-])[C@H]2O)[C@](C)(OC)C[C@@H](C)C(=O)[C@H](C)[C@H]2N(CCc3ccc(Cl)c(Cl)c3)C(=O)O[C@]12C (some centres unmarked) [Example 56, 3'-N-Desmethyl-3'-N-[3-(methylsulfoxy)propyl]-11-deoxy-11-[carboxy-(3,4-dichlorophenethylamino)]-6-O-methyl-erythromycin A 11,12-(cyclic carbamate)] as the compound, how does the Ki read?
Its Ki is 1.78 nM.

CCNC(=S)N(C)[C@H]1C[C@@H](C)O[C@@H](O[C@@H]2[C@@H](C)[C@H](O[C@H]3C[C@@](C)(OC)[C@@H](O)[C@H](C)O3)[C@@H](C)C(=O)O[C@H](CC)[C@@]3(C)OC(=O)N(CCc4ccc(Cl)c(Cl)c4)[C@@H]3[C@@H](C)C(=O)[C@H](C)C[C@@]2(C)OC)[C@@H]1O [Example 57, 3'-N-Desmethyl-3'-N-ethylthiourea-11-deoxy-11-[carboxy-(3,4-dichlorophenethylamino)]-6-O-methyl-erythromycin A 11,12-(cyclic carbamate)] was tested. Which Ki did it give?
Its Ki is 9.12 nM.

CC[C@H]1OC(=O)[C@H](C)[C@@H](O[C@H]2C[C@@](C)(OC)[C@@H](O)[C@H](C)O2)[C@H](C)[C@@H](O[C@@H]2O[C@H](C)C[C@H](N(C)Cc3ccc(CO)o3)[C@H]2O)[C@](C)(OC)C[C@@H](C)C(=O)[C@H](C)[C@H]2N(CCc3ccc(Cl)c(Cl)c3)C(=O)O[C@]12C [Example 58, 3'-N-Desmethyl-3'-N-[2-(5-hydroxymethyl)furyl]methyl-11-deoxy-11-[carboxy-(3,4-dichlorophenethylamino)]-6-O-methyl-erythromycin A 11,12-(cyclic carbamate)] was tested. Which Ki did it give?
The Ki was 1.55 nM.

With CC[C@H]1OC(=O)[C@H](C)[C@@H](O[C@H]2C[C@@](C)(OC)[C@@H](O)[C@H](C)O2)[C@H](C)[C@@H](O[C@@H]2O[C@H](C)C[C@H](N(C)CC3CC3)[C@H]2O)[C@](C)(OC)C[C@@H](C)C(=O)[C@H](C)[C@H]2N(CC3(c4ccc(Cl)c(Cl)c4)CC3)C(=O)O[C@]12C [Example 59, 3'-N-Desmethyl-3'-N-cyclopropylmethyl-11-deoxy-11-[carboxy-(α,α-cyclopropyl-3,4-dichlorophenethylamino)]-6-O-methyl-erythromycin A 11,12-(cyclic carbamate)] as the compound, how does the Ki read?
The Ki was 3.72 nM.

CCCN(C)[C@H]1C[C@@H](C)O[C@@H](O[C@@H]2[C@@H](C)[C@H](O[C@H]3C[C@@](C)(OC)[C@@H](O)[C@H](C)O3)[C@@H](C)C(=O)O[C@H](CC)[C@@]3(C)OC(=O)N(CCNc4ccc(Cl)cc4)[C@@H]3[C@@H](C)C(=O)[C@H](C)C[C@@]2(C)OC)[C@@H]1O [Example 60, 3'-N-Desmethyl-3'-N-propyl-11-deoxy-11-[carboxy-(4-chloroanilinoethylamino)]-6-O-methyl-erythromycin A 11,12-(cyclic carbamate)] was tested. Which Ki did it give?
The Ki was 2.69 nM.

CC[C@H]1OC(=O)[C@H](C)[C@@H](O[C@H]2C[C@@](C)(OC)[C@@H](O)[C@H](C)O2)[C@H](C)[C@@H](O[C@@H]2O[C@H](C)C[C@H](N(C)C3CCCC3)[C@H]2O)[C@](C)(OC)C[C@@H](C)C(=O)[C@H](C)[C@H]2N(CCNc3ccc(Cl)cc3)C(=O)O[C@]12C [Example 61] was tested. Which Ki did it give?
The Ki was 2.69 nM.

For CC[C@H]1OC(=O)[C@H](C)[C@@H](O[C@H]2C[C@@](C)(OC)[C@@H](O)[C@H](C)O2)[C@H](C)[C@@H](O[C@@H]2O[C@H](C)C[C@H](N(C)Cc3ncc[nH]3)[C@H]2O)[C@](C)(OC)C[C@@H](C)C(=O)[C@H](C)[C@H]2N(CCc3ccc(Cl)c(Cl)c3)C(=O)O[C@]12C [Example 63, 3'-N-Desmethyl-3'-N-(2-imidazolyl)methyl-11-deoxy-11-[carboxy-(3,4-dichlorophenethylamino)]-6-O-methyl-erythromycin A 11,12-(cyclic carbamate)], which Ki is on record?
Its Ki is 7.41 nM.

For CC[C@H]1OC(=O)[C@H](C)[C@@H](O[C@H]2C[C@@](C)(OC)[C@@H](O)[C@H](C)O2)[C@H](C)[C@@H](O[C@@H]2O[C@H](C)C[C@H](N(C)Cc3cccnc3)[C@H]2O)[C@](C)(OC)C[C@@H](C)C(=O)[C@H](C)[C@H]2N(CCc3ccc(Cl)c(Cl)c3)C(=O)O[C@]12C [Example 64, 3'-N-Desmethyl-3'-N-(3-pyridyl)methyl-11-deoxy-11-[carboxy-(3,4-dichlorophenethylamino)]-6-O-methyl-erythromycin A 11,12-(cyclic carbamate)], which Ki is on record?
The Ki was 6.92 nM.

How did the Ki turn out when CC[C@H]1OC(=O)[C@H](C)[C@@H](O[C@H]2C[C@@](C)(OC)[C@@H](O)[C@H](C)O2)[C@H](C)[C@@H](O[C@@H]2O[C@H](C)C[C@H](N(C)Cc3ccccn3)[C@H]2O)[C@](C)(OC)C[C@@H](C)C(=O)[C@H](C)[C@H]2N(CCc3ccc(Cl)c(Cl)c3)C(=O)O[C@]12C [Example 65, 3'-N-Desmethyl-3'-N-(2-pyridyl)methyl-11-deoxy-11-[carboxy-(3,4-dichlorophenethylamino)]-6-O-methyl-erythromycin A 11,12-(cyclic carbamate)] was run?
The Ki was 7.41 nM.

For CC[C@H]1OC(=O)[C@H](C)[C@@H](O[C@H]2C[C@@](C)(OC)[C@@H](O)[C@H](C)O2)[C@H](C)[C@@H](O[C@@H]2O[C@H](C)C[C@H](N(C)Cc3ccc([N+](=O)[O-])s3)[C@H]2O)[C@](C)(OC)C[C@@H](C)C(=O)[C@H](C)[C@H]2N(CCc3ccc(Cl)c(Cl)c3)C(=O)O[C@]12C [Example 66, 3'-N-Desmethyl-3'-N-[(5-nitro-2-thienyl]methyl-11-deoxy-11-[carboxy-(3,4-dichlorophenethylamino)]-6-O-methyl-erythromycin A 11,12-(cyclic carbamate)], which Ki is on record?
The Ki was 1.38 nM.
